{"source": "ChEMBL document CHEMBL5055626", "about": "(J Med Chem, 2021)", "key": {"[1]": {"test": "Antagonist activity at rat nAChR alpha7 N77T mutant expressed in xenopus oocytes assessed as inhibition of Ach- induced response at -70 mV holding potential preincubated for 5 mins followed by Ach stimulation by voltage-clamp based electrophysiological method", "format": "cell-based", "conditions": "Oocyte"}, "[2]": {"biological_target": "Neuronal acetylcholine receptor; alpha4/beta2 (Rattus norvegicus) (UniProt P09483+P12390)", "test": "Antagonist activity at rat alpha4beta2 nAChR expressed in xenopus oocytes assessed as inhibition of Ach- induced response at 10 uM at -70 mV holding potential preincubated for 5 mins followed by Ach stimulation by voltage-clamp based electrophysiological method", "format": "cell-based", "conditions": "Oocyte"}, "[3]": {"biological_target": "Neuronal acetylcholine receptor; alpha3/beta2 (Rattus norvegicus, UniProt P04757+P12390)", "sequence (P04757 whole entry)": "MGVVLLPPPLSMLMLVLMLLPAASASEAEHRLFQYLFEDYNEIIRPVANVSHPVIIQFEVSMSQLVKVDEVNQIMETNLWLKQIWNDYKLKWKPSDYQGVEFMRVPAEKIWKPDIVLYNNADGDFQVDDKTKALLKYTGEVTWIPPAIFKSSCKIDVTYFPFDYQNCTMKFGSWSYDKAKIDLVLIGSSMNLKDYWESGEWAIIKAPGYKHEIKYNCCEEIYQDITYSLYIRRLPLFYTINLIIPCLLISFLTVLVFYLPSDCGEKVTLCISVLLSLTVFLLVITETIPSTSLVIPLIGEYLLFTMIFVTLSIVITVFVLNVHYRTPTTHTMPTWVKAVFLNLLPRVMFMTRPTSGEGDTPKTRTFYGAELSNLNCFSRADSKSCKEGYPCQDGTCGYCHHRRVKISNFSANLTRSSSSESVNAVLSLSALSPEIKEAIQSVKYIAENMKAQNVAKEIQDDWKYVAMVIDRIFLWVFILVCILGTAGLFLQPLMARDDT", "sequence (P12390 whole entry)": "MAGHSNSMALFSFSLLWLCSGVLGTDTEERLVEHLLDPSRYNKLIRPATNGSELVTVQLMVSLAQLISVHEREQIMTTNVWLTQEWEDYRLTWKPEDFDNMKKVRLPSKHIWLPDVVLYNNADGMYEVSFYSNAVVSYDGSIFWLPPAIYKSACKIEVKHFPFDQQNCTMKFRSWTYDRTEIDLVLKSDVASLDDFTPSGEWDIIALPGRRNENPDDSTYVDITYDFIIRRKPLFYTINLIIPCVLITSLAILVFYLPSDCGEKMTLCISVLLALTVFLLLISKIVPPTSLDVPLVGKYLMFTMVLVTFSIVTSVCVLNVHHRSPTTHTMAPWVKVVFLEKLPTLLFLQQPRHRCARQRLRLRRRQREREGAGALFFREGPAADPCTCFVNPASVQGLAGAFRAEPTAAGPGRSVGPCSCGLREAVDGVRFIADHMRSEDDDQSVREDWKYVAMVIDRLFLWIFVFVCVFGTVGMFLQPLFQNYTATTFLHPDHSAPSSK", "test": "Antagonist activity at rat alpha3beta2 nAChR expressed in xenopus oocytes assessed as inhibition of Ach- induced response at -70 mV holding potential preincubated for 5 mins followed by Ach stimulation by voltage-clamp based electrophysiological method", "format": "cell-based, Oocyte"}, "[4]": {"test": "Antagonist activity at human nAChR alpha7 S184N mutant expressed in xenopus oocytes assessed as inhibition of Ach- induced response at -70 mV holding potential preincubated for 5 mins followed by Ach stimulation by voltage-clamp based electrophysiological method", "format": "cell-based", "conditions": "Oocyte"}, "[5]": {"biological_target": "Neuronal acetylcholine receptor; alpha4/beta4 (Rattus norvegicus) (UniProt P09483+P12392)", "test": "Antagonist activity at rat alpha4beta4 nAChR expressed in xenopus oocytes assessed as inhibition of Ach- induced response at 10 uM at -70 mV holding potential preincubated for 5 mins followed by Ach stimulation by voltage-clamp based electrophysiological method", "format": "cell-based", "conditions": "Oocyte"}, "[6]": {"test": "Antagonist activity at rat nAChR alpha7 R6K mutant expressed in xenopus oocytes assessed as inhibition of Ach- induced response at -70 mV holding potential preincubated for 5 mins followed by Ach stimulation by voltage-clamp based electrophysiological method", "format": "cell-based", "conditions": "Oocyte"}, "[7]": {"test": "Antagonist activity at rat nAChR alpha7 Q141H mutant expressed in xenopus oocytes assessed as inhibition of Ach- induced response at -70 mV holding potential preincubated for 5 mins followed by Ach stimulation by voltage-clamp based electrophysiological method", "format": "cell-based", "conditions": "Oocyte"}}, "note": "Active and inactive are the calls of the source. No cut-off for these calls is given here. Where a SMILES comes first, the peptide text is derived from it. Bridges are numbered along the chain shown (N, C = ends)."}
{"smiles": "C[C@@H]1NC(=O)[C@@H]2CSSC[C@H](NC(=O)CN)C(=O)N[C@@H](CSSC[C@@H](C(N)=O)NC(=O)[C@H](Cc3cnc[nH]3)NC(=O)[C@H](CCC(=O)O)NC(=O)[C@H](Cc3cnc[nH]3)NC1=O)C(=O)N[C@@H](CO)C(=O)N[C@@H](CC(N)=O)C(=O)N1CCC[C@H]1C(=O)N1CCC[C@H]1C(=O)N2", "note": "(H-GCCSNPPCAHEHC-NH2; disulfide 2-8, 3-13)", "values": [{"measurement": "IC50", "setting": "[1]", "value": 160, "unit": "nM"}, {"measurement": "inhibition", "setting": "[2]", "value": "inactive"}, {"measurement": "IC50", "setting": "[3]", "value": 350, "unit": "nM"}, {"measurement": "IC50", "setting": "[4]", "value": 850, "unit": "nM"}, {"measurement": "inhibition", "setting": "[5]", "value": "inactive"}, {"measurement": "IC50", "setting": "[6]", "value": 170, "unit": "nM"}, {"measurement": "IC50", "setting": "[7]", "value": 300, "unit": "nM"}]}
